{"source": "patent US10919764B2", "about": "“Multi-chamber hypochlorous acid dispenser” (WIAB WATER […], priority 2016, dated 2021)", "system": "spores", "conditions": "acid used for protonization of HOCl", "excerpt": "In addition to buffering the product during storage and after application, acetic acid also has the advantage of improving the sporicidal effect by 40% compared to other acids used for protonization of HOCl."}
{"smiles": "CC(=O)O", "note": "[acetic acid]", "values": [{"measurement": "improvement of the sporicidal effect compared to other acids used for protonization of HOCl", "value": 40, "unit": "%"}]}
